Experimental data reported in patent publication US7582676B2, “2-phenylpyran-4-one derivatives as selective COX-2 inhibitors” (Laboratorios Almirall, S.A., priority 2003, dated 2009).

Legend:
COX-1 = target: T1, COX-1 (Homo sapiens, UniProt P23219); test: COX-1 activity in human whole blood (TXB2, calcium ionophore A23187); format: cell-based; settings: 24 h at 37° C., A23187 25 μM, TXB2 by EIA
T1 construct: Fresh blood from healthy volunteers; endogenous in cells; host or cells: human whole blood of healthy volunteers, stimulated with calcium ionophore A23187; TXB2 read-out
Procedure: (§1) COX-1 and COX-2 Activities in Human Whole Blood
Fresh blood from healthy volunteers who had not taken any non-steroidal anti-inflammatory drugs for at least 7 days prior to blood extraction was collected in heparinized tubes (20 units of heparin per ml). For the COX-1 activity determination, 500 μl aliquots of blood were incubated with either 5 μl vehicle (dimethylsulphoxide) or 5 μl of a test compound for 24 h at 37° C. Calcium ionophore A23187 (25 μM) was added 20 min before stopping the incubation. Plasma was separated by centrifugation (10 min at 13000 rpm) and kept at −30° C. until TXB2 levels were measured using an enzyme immunoassay kit (EIA).
The effect of the compounds was evaluated by incubating each compound at five to six different concentrations with triplicate determinations. IC50 values were obtained by non-linear regression using InPlot, GraphPad software on an IBM computer.

COX-2 = target: T2, COX-2 (Homo sapiens, UniProt P35354); test: COX-2 activity in human whole blood (PGE2, LPS induced); format: cell-based; settings: for IC50: LPS 10 μg/ml, 24 h at 37° C., PGE2 by EIA; for Ratio COX-1/COX-2: ratio of COX-1/COX-2 IC50 values
T2 construct: in the presence of LPS (10 μg/ml) for 24 h at 37° C. in order to induce the COX-2 expression; endogenous in cells; host or cells: human whole blood of healthy volunteers, LPS-stimulated for 24 h; PGE2 read-out
T2 sequence (P35354 18-604): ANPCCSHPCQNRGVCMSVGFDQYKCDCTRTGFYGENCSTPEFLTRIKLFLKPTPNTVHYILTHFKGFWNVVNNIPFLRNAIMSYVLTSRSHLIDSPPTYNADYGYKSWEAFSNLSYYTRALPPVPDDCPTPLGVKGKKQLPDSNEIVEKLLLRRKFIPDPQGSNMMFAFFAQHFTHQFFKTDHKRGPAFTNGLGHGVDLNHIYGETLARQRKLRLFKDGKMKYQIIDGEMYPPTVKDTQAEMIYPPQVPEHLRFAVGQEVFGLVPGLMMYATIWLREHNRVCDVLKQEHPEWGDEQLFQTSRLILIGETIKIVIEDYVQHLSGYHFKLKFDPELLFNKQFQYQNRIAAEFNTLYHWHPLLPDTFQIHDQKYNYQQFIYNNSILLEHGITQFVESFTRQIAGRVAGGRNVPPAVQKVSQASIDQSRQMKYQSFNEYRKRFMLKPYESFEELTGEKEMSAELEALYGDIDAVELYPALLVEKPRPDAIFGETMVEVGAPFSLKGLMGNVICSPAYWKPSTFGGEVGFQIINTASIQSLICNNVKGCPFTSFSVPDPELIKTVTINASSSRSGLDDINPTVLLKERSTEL
Procedure: as §1
For the COX-2 activity determination, 500 μl aliquots of blood were incubated in the presence of LPS (10 μg/ml) for 24 h at 37° C. in order to induce the COX-2 expression (Patriagnani et al., J. Pharm. Exper. Ther. 271; 1705-1712 (1994)). Plasma was separated by centrifugation (10 min at 13000 rpm) and kept at −30° C. until PGE2 levels were measured using an enzyme immunoassay kit (EIA). […] IC50 values were obtained by non-linear regression using InPlot, GraphPad software on an IBM computer.

T1 sequence (P23219 24-599): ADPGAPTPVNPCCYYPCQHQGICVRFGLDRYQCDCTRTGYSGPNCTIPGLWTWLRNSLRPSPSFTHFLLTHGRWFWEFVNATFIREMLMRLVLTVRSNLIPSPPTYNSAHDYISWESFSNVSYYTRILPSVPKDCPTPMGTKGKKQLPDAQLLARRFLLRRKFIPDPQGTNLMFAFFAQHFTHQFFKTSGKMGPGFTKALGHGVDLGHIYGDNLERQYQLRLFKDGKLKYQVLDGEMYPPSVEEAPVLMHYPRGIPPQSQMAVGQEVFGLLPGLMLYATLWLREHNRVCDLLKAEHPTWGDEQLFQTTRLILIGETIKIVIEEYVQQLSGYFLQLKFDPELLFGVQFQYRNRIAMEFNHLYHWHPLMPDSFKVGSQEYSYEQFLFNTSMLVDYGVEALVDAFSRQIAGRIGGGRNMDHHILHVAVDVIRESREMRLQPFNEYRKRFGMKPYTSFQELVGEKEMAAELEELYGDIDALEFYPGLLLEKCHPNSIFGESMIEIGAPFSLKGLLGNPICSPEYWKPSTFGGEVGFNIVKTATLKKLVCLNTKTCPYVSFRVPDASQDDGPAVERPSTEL

IC50 (COX-1) [µM] | IC50 (COX-2) [µM] | Ratio COX-1/COX-2 (COX-2) | SMILES
72.9 |  |  | Cc1cc(=O)c(Oc2ccc(Cl)cc2F)c(-c2ccc([S+](C)[O-])cc2)o1 (single isomer, unassigned; enantiomer 4a) [Example 5, 3-4-Chloro-2-fluorophonoxy)-6-methyl-2-[4-(methylsuffinyl)phenyl]-4H-pyran-4-one-Enantiomer 4a]
 | 0.96 | 104 | Cc1cc(=O)c(Oc2ccc(F)cc2F)c(-c2ccc([S+](C)[O-])cc2)o1 (racemic) [Example 1, 3-(2,4-Difluorophenoxy)-6-methyl-2-[4-(methylsulfinyl)phenyl]-4H-pyran4-one]
77 | 0.57 | 135 | Cc1cc(=O)c(Oc2ccc(Br)cc2F)c(-c2ccc([S+](C)[O-])cc2)o1 (racemic) [Example 7, 3-(4-Bromo-2-fluorophenoxy)-6-methyl-2-[4-(methylsulfinyl)phenyl]-4H-pyran-4-one]
73.1 | 0.17 | 430 | Cc1cc(=O)c(Oc2ccc(Br)cc2F)c(-c2ccc([S+](C)[O-])cc2)o1 (single isomer, unassigned; enantiomer 7b) [Example 9, 3-4-Bromo-2-fluorophenoxy)-6-methyl-2-[4-(methylsulfinyl)phenyg]4H-pyran-4-one-Enantiomer 7b]
86.6 | 0.27 | 321 | Cc1cc(=O)c(Oc2ccc(F)cc2F)c(-c2ccc([S+](C)[O-])cc2)o1 (single isomer, unassigned; enantiomer 1b) [Example 3, 3-(2,4-Difluorophenoxy)-6-methyl-2-[4-(methylsulfinyl)phenyl]-4H-pyran4-one-Enantiomer 1b]
 | 2.1 | 48 | Cc1cc(=O)c(Oc2ccc(F)cc2F)c(-c2ccc([S+](C)[O-])cc2)o1 (single isomer, unassigned; enantiomer 1a) [Example 2, 3-(2,4-Difluorophenoxy)-6-methyl-2-[4-(methylsulfinyl)phenyl]-4H-pyran-4-one-Enantiomer 1a]
32.1 | 1.58 | 20 | Cc1cc(=O)c(Oc2ccc(Br)cc2F)c(-c2ccc([S+](C)[O-])cc2)o1 (single isomer, unassigned; enantiomer 7a) [Example 8, 3-4-Bromo-2-fluorophenoxy)-6-methyl-2-[4-methylsulfinyl)phenyl]-4H-pyran4-one-Enantiomer 7a]
